The record followed here is patent publication US20260263584A1, “Modulating the Innate Immunity of RNA” (priority 2023, published 2026).

For the test, the system named is Hela cells. The format is cell-based, human.

As for `Cn1c(=O)n(C2CCC(=O)NC2=O)c2cccc(C#CCOC3CCN(C[C@H]4CC[C@H](n5cc(NC(=O)c6cnn7ccc(N8C[C@H]9C[C@@H]8CO9)nc67)c(C(F)F)n5)CC4)CC3)c21` (stereo partly drawn) [PF-07911620, N-{3-(difluoromethyl)-1-[(1S,4R)-4-({4-[(3-{1-[(3S)-2,6-dioxopiperidin-3-yl]-3-methyl-2-oxo-2,3-dihydro-1H-benzimidazol-4-yl}prop-2-yn-1-yl)oxy]piperidin-1-yl}methyl)cyclohexyl]-1H-pyrazol-4-yl}-5-[(1R,4R)-2-oxa-5-azabicyclo[2,2,1]heptan-5-yl]pyrazolo[1,5-a]pyrimidine-3-carboxamide], the “frequency of HA-positive cells, higher than vehicle controls” value is given as 5.5 fold.
